The record followed here is patent publication US20170209579A1, “NON-INVASIVE RADIOFREQUENCY FIELD TREATMENT FOR CANCER THERAPY” (Baylor College of Medicine, priority 2014, published 2017).

The structures appear in SMILES notation.

Data set [1] deals with orthotopic pancreatic tumors (KPC pancreatic adenocarcinoma cells). The experiment in a line: Gemcitabine uptake into orthotopic KPC pancreatic tumors with and without RF (LC-MS). Particulars: 70 mg/Kg systemic injection, sacrificed 5 hours later, RF until 41° C. Type of data set: in vivo, mouse. An excerpt:
FIGS. 11A-11E illustrate an example of an embodiment of the use RF energy to enhance the uptake of chemotherapy drugs into tumors compared to using chemotherapy drugs alone. (11A) Female Nude mice (4-6 weeks old) were given direct injections of KPC pancreatic adenocarcinoma cells (1×10^6) into the pancreas. After 1-2 weeks (enough time for a orthotopic pancreatic tumor to form) the mice were subjected to RF exposure under a ramped power treatment protocol as shown in the table. (11B) Graph of a typical RF power and resulting temperature versus time plot for a single mouse being exposed to RF energy. The surface temperature of the mouse in close proximity to the pancreas was recorded using an IR camera. The RF exposure was turned off once the temperature reached 41° C. […] Quantification of Gemcitabine was analyzed using Liquid Chromatography Mass Spectroscopy (LC-MS). (11E) Quantification of the levels of Gemcitabine in the orthotopic pancreatic tumors of mice with and without RF exposure. […]
FIGS. 11A-11E illustrate an example of an embodiment of the use RF energy to enhance the uptake of chemotherapy drugs into tumors compared to using chemotherapy drugs alone. […] The surface temperature of the mouse in close proximity to the pancreas was recorded using an IR camera. […] Quantification of Gemcitabine was analyzed using Liquid Chromatography Mass Spectroscopy (LC-MS). […]

In the next data set the test system is Hep3B orthotopic tumors. The experiment in a line: Orthotopic Hep3B xenografts in CB17 SCID mice, tumor mass. Type of data set: in vivo, mouse. The source says:
For in vivo studies, an implanted mouse model of human HCC was generated in CB17SCID mice (Taconic, Hudson, N.Y.). Female mice between 4 and 5 weeks in age were purchased and acclimatized in M.D. Anderson Animal facilities for up to one week. All animals were handled, housed and studied in accordance with the Institutional Animal Care and Use Committee. Tumors were generated after orthotopic implantation of approximately 1.6 million cells into the liver of each mouse (10 mice per group). Bioluminescence imaging indicated tumor development in the majority of mice three weeks after implantation. Euthanasia was performed by carbon dioxide inhalation followed by cervical spine dislocation.
Cultured luciferase and GFP-expression human HCC cell lines (Hep3B and HepG2) were harvested from an exponentially growing culture and washed with PBS. The cells were re-suspended in 3 ml PBS and final centrifugation was performed at 1000 RPM for 5 minutes. Supernatant was discarded and the cell pellet was used for implantation. The concentration of cells achieved using this protocol was 160,000 cells per micro liter. The cells were kept on ice and animals were injected within 3-4 hours after final centrifugation.
Before surgery, hair was removed from the ventral surface of the abdomen using clippers. Mice were anesthetized using 2.5% isoflurane. The surgical field was sterilized with 70% (v/v) ethanol in water. Mice were placed supine on a heating pad and the surgical site was sterilized using povidone iodine swab sticks. After confirming induction of anesthesia, an approximately 1-cm transverse incision was made in the skin of the upper abdomen slightly left of the midline. Deeper layers of muscle and peritoneum were incised and hemostasis was achieved using silver nitrate chemical cautery sticks. By applying gentle pressure on the lower abdomen and lower chest, the left lobe of the liver was eviscerated. […]
Mice with confirmed tumors on bioluminescence were then randomized in groups of 10. […] Sample size was calculated using Stata SE 12.1 for Mac (College Station, Tex.). […]

Regarding `Nc1ccn([C@@H]2O[C@H](CO)[C@@H](O)C2(F)F)c(=O)n1` [gemcitabine, 2′,2′-difluoro 2′-deoxycytidine], the “Gemcitabine present in tumors, RF-treated mice versus control group” value in data set [1] was “approximately 4 ×”. The “Mean tumor mass [±SD]” value with Hep3B orthotopic tumors (RF then gemcitabine (RF 10 min, 600 W, immediately followed by gemcitabine)) was 180 ± 91 mg; in the data set on Hep3B orthotopic tumors (gemcitabine alone, 70 mg/kg/dose twice a week for three weeks), 661 ± 419 mg; with Hep3B orthotopic tumors (gemcitabine then RF (RF 24 hours later)), 291 ± 126 mg.
